Results published in US12629375B2, “Compounds with anti-tumor activity against cancer cells bearing HER2 exon 21 insertions” (Board of Regents, The University of Texas System, priority 2019, dated 2026).
Like-named read-outs stand apart in the source and are kept apart here.

Tests used:
[1] = system: Ba/F3 cells stably expressing HER2 mutations (exons 19, 20, 21); assay: Ba/F3 HER2 mutant cell viability (Cell Titer Glo) TKI screen; type: cell-based; details: for sensitivity of HER2 mutants to inhibitor: all HER2 mutants, 72 hours drug treatment; for activity against cells expressing D769 variants: HER2 D769 variants; for activity against cells expressing D769 variants / inhibiting cell viability in cells expressing exon 20 mutations / inhibitory activity for HER2 mutants across all three exons: 72 hours; for inhibiting cell viability in cells expressing exon 20 mutations: HER2 exon 20 mutations; for inhibitory activity for HER2 mutants across all three exons: exons 19, 20, 21
Procedure: Briefly, stable Ba/F3 cell lines were generated by retroviral transduction of Ba/F3 cell line for 12 hours. […] Three days after transduction, 2 μg/ml puromycin (Invitrogen) was added to the RPMI media. After 5 days of selection, cells were stained with FITC-HER2 (Biolegend) sorted by FACS. Cell lines were then grown in the absence of IL-3 for two weeks and cell viability was assessed every three days using the Cell Titer Glo assay (Progema).
(§1) Briefly, 2000-3000 cells per well were plated in 384-well plates (Greiner Bio-One) in technical triplicate. Cells were treated with seven different concentrations of tyrosine kinase inhibitors or vehicle alone at a final volume of 40 μL per well. After 3 days, 11μL of Cell Titer Glo was added to each well. Plates were shaken for 15 minutes, and bioluminescence was determined using a FLUOstar OPTIMA multi-mode micro-plate reader (BMG LABTECH). Bioluminescence values were normalized to DMSO treated cells, and normalized values were plotted in GraphPad Prism using non-linear regression fit to normalized data with a variable slope.

[2] = system: MCF10A HER2 mutant cell lines; assay: MCF10A cell viability, HER2 exon 20 mutant cell lines together (average, selectivity vs HER2 WT, T-DM1 combination); type: cell-based, human
Procedure: as §1
Human Cell lines: MCF10A cells were purchased from ATCC and were cultured in DMEM/F12 media supplemented with 1% penicillin/streptomycin, 5% horse serum (sigma), 20 ng/ml EGF, […] hydrocortisone, and 10 μg/ml insulin. […] Two days after transduction, 0.5 μg/ml puromycin (Invitrogen) was added to the RPMI media. […] CW-2 cells were provided by the Riken cell line database under MTA, and were maintained in RPMI containing 10% FBS and 1% penicillin/streptomycin.

[3] = system: HER2 Y772dupYVMA NSCLC PDX; assay: HER2 Y772dupYVMA NSCLC PDX model; type: in vivo, NSG mice
Procedure: Y772dupYVMA PDX mice were purchased from Jax Labs (Model #TM01446). Fragments from tumors expressing HER2 Y772dupYVMA were inoculated into 5- to 6-week old female NSG mice (Jax Labs #005557). Mice were measured three times per week, and when tumors reached a volume of 200-300 mm^3 mice were randomized into four treatment groups: vehicle control (0.5% Methylcellulose, 0.05% Tween-80 in dH2O), 2.5 mg/kg poziotinib, 10 mg/kg T-DM1, or combination of 2.5 mg/kg poziotinib and 10 mg/kg T-DM1. Tumor volumes and body weight were measured three times per week. Mice treated with 2.5 mg/kg poziotinib received drug orally Monday-Friday (5 days per week). Mice treated with 10 mg/kg T-DM1 received one intravenous (IV) dose of T-DM1 on the day of randomization. Mice treated with combination poziotinib and T-DM1 received one IV dose of T-DM1 and began 2.5 mg/kg poziotinib five days per week, 3 days after the dose of T-DM1. Mice received a holiday from dosing if the mouse dropped in body weight by greater than 10% or if body weight dropped below 20 grams. Progression free survival was defined as tumor doubling from best response for two consecutive measurements. Complete regression was defined as greater than 95% reduction in tumor burden, and for mice with complete regression, tumor doubling was defined greater than 75 mm^3 for more than two consecutive measurements. Experiments were completed in agreement with Good Animal Practices and with approval from MD Anderson Cancer Center Institutional Animal Care and Use Committee (Houston, TX).

[4] = system: patients with HER2 mutant NSCLC; details: cited from earlier work
[5] = system: patients with HER2 mutant NSCLC; details: cited from earlier work; remark: listed apart in the source
[6] = system: CW-2 large intestine cells harboring HER2 exon 19 mutation L755S; assay: CW-2 cell viability; type: cell-based; details: Homo sapiens, CW-2, 72 h, read-out: average IC50
Procedure: as §1, with “Cell Viability Assay and IC50 Estimation: Cell viability was determined using the Cell Titer Glo assay (Promega) as previously described (Robichaux et al., 2018). Briefly,” for “Briefly,”, “slope. IC50 values were calculated by GraphPad Prism at 50% inhibition.” for “slope.”
Human Cell lines: MCF10A cells were purchased from ATCC and were cultured in DMEM/F12 media supplemented with 1% penicillin/streptomycin, 5% horse serum (sigma), 20 ng/ml EGF, […] hydrocortisone, and 10 μg/ml insulin. Stable cell lines were created by retroviral transduction, and retroviruses were generated by transfecting pBabe-Puro based vectors summarized in Table 1 (Addgene and Bioinnovatise) into Phoenix 293T-ampho cells (Orbigen) using Lipofectamine 2000 (Invitrogen). […]

p-HER2 = assay: Western blot of p-HER2 in MCF10A HER2 G776delinsVC cells; type: cell-based, human; details: 10 nM, 2 hours treatment
Procedure: Western Blotting: For Western blotting, cells were washed in PBS and lysed in RIPPA lysis buffer (ThermoFisher) and protease inhibitor cocktail tablets (Roche). Protein (30-40 μg) was loaded into gels purchased from BioRad. BioRad semi-dry transfer was used and then probed with antibodies against, pHER2, HER2, pPI3K, PI3K, p-AKT, AKT, p-ERK1/2, and ERK1/2 (1:1000; Cell Signaling). Blots were probed with antibodies against vinculin or β-actin (Sigma-Aldrich) as a loading control, and exposed using ECL Western Blotting substrate (Promega).

[7] = system: CW-2 colorectal cell xenograft (HER2 L755S); assay: CW-2 xenograft mouse model; type: in vivo, nu/nu nude mice; details: day 21, 30 mg/kg, 5 days/week
Procedure: In vivo xenograft studies: CW-2 cell line xenografts were created by injecting 1×10^6 cells in 50% matrigel into 6 week old female nu/nu nude mice. When tumors reached 350 mm^3 mice were randomized into 4 groups: 20 mg/kg afatinib, 5 mg/kg poziotinib, 30 mg/kg neratinib, or vehicle control (0.5% Methylcellulose, 2% Tween-80 in dH2O). Tumor volumes were measured three times per week. Mice received drug Monday-Friday (5 days per week), but began dosing on Wednesday allowing for a 2 day holiday after the first 3 days of dosing.

[8] = system: patients with HER2 mutant cancers; details: cited from earlier work
[9] = lung cancer patients harboring HER2 exon 20 insertion mutations

## CNC(=O)CN1CCC(Oc2cc3c(Nc4cccc(Cl)c4F)ncnc3cc2OC)CC1 [sapatinib]
[1]
  sensitivity of HER2 mutants to inhibitor: robust resistance

## CCOc1cc2ncc(C#N)c(Nc3ccc(OCc4ccccn4)c(Cl)c3)c2cc1NC(=O)/C=C/[C@H]1CCCN1C [pyrotinib]
[2]; MCF10A HER2 mutant vs HER2 WT cell lines
  selectivity index (SI, IC50 value mutant/IC50 value WT): 0.063

## Cc1cc(C(=O)Nc2nc3cccc(Cl)c3n2[C@@H]2CCCCN(C(=O)/C=C/CN(C)C)C2)ccn1 [nazartinib]
[1]
  activity against cells expressing D769 variants: did demonstrate activity
  inhibiting cell viability in cells expressing exon 20 mutations: not effective

## C=CC(=O)Nc1cc(Nc2nccc(-c3cn(C)c4ccccc34)n2)c(OC)cc1N(C)CCN(C)C [osimertinib]
[1]
  activity against cells expressing D769 variants: did demonstrate activity
  inhibiting cell viability in cells expressing exon 20 mutations: not effective

## CS(=O)(=O)CCNCc1ccc(-c2ccc3ncnc(Nc4ccc(OCc5cccc(F)c5)c(Cl)c4)c3c2)o1 [lapatinib]
[1]
  sensitivity of HER2 mutants to inhibitor: robust resistance

## T-DM1
[2]; agent alone
  inhibition of cell viability of MCF10A HER2 mutant cell lines: did not inhibit cell viability
[3]; by day 30
  tumor growth after best response: tumor growth resumed in all mice
[3]; day 15 (best response), poziotinib 2.5 mg/kg, T-DM1 10 mg/kg single dose
  mice with complete tumor regression: 2/9
[3]; poziotinib 2.5 mg/kg 5 days per week, T-DM1 10 mg/kg single IV dose
  median PFS (mPFS), time to tumor doubling from best response: 27 days
[4]; patients harboring exon 20 insertion mutations
  ORR: 54.5%
[4]; patients with exon 19 mutations
  partial responses: did not have partial responses

## COc1cc2ncnc(Nc3ccc(F)c(Cl)c3)c2cc1NC(=O)/C=C/CN1CCCCC1 [dacomitinib]
[5]; HER2 mutant NSCLC
  ORR: 11.5%
[5]; [9]
  response rate: 11.5%
[5]; patients bearing HER2 exon 20 insertion p.Y772dupYVMA
  responses: no responses
[1]
  inhibitory activity for HER2 mutants across all three exons: had inhibitory activity

## CCOc1cc2ncc(C#N)c(Nc3ccc(OCc4ccccn4)c(Cl)c3)c2cc1NC(=O)/C=C/CN(C)C [neratinib]
[2]; Homo sapiens, MCF-10A, average over MCF10A G776del insVC, Y772dupYVMA, G778dupGSP cells, 72 hours
  IC50: 150 nM
[6]
  IC50: 68.8 nM
p-HER2
  inhibition of p-HER2: not
[7]
  increased tumor volume compared to vehicle control: 28%
[8]; SUMMIT pan-cancer study, all HER2 mutations
  objective response rate (ORR): less than 15%
[8]; SUMMIT, HER2 kinase domain point mutations
  ORR: 21.4%
[8]; SUMMIT, exon 20 insertions
  ORR: 7.1%
[8]; SUMMIT, patients with colorectal cancer
  response: did not respond
[8]; [9]
  response rate: 0%
[8]; patients with breast cancer, single agent, multiple studies
  ORR: 12.5%-32%
[8]; patients with lung cancer, single agent
  response rate: 0%-4%
[1]; HER2 L755S, V777L, or L869R mutations
  IC50 values in Ba/F3 drug screening: low IC50 values
[1]; HER2 V842I (exon 21)
  sensitivity of V842I mutation in the drug screen assays: not sensitive
[1]
  inhibitory activity for HER2 mutants across all three exons: had inhibitory activity
